Source: PubChem BioAssay AID270 (DTP/NCI, 2004)
Where “and” joins values, the source holds several entries; their conditions need not be identical. Equal entries are not always repeated. Inconclusive results are not listed. The calls were made as follows: active = survival T/C of 150% or more; inactive = T/C below 125% in these data.

System: BDF1 mice, s.c. Lewis lung carcinoma, T/C %
Assay: NCI In Vivo Anticancer Drug Screen. Data for tumor model Lewis Lung Carcinoma (subcutaneous) in B6D2F1 (BDF1) mice
In short: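 First, mice carry a transplantable tumor. Next, groups receive either compound or vehicle. Finally, survival or tumor dimensions in the dosed animals are divided by the corresponding control figure.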

Measured: T/C

CC1CCC(NC(=O)N(CCCl)N=O)CC1 (configuration not stated)
18 % of control: endpoint: median tumor weight (est.), dose: 24.0 mg/kg/injection, schedule: Q01DX001 (sc), vehicle: olive oil, sesame oil, peanut oil, higher = larger tumour
31 % of control: endpoint: median tumor weight (est.), dose: 24.0 mg/kg/injection, schedule: Q01DX001 (ip), vehicle: saline with Tween-80, higher = larger tumour
active: endpoint: median survival time, dose: 10.0 mg/kg/injection, schedule: Q01DX005 (ip), vehicle: saline with Tween-80, higher = longer survival 157 % of control | endpoint: median survival time, dose: 12.0 mg/kg/injection, schedule: Q01DX001 (ip), vehicle: gum acacia, higher = longer survival 158 % of control | endpoint: median survival time, dose: 16.0 mg/kg/injection, schedule: Q05DX002 (ip), vehicle: gum acacia, higher = longer survival 156 % of control | endpoint: median survival time, dose: 24.0 mg/kg/injection, schedule: Q08DX002 (ip), vehicle: gum acacia, higher = longer survival 165 % of control | endpoint: median survival time, dose: 30.0 mg/kg/injection, schedule: Q01DX001 (ip), vehicle: Klucel (hydroxypropylcellulose) (HPC), higher = longer survival 150 % of control | endpoint: median survival time, dose: 30.0 mg/kg/injection, schedule: Q01DX001 (ip), vehicle: saline with Tween-80, higher = longer survival 160 % of control
74 % of control: endpoint: median tumor weight (est.), dose: 16.0 mg/kg/injection, schedule: Q01DX001 (sc), vehicle: olive oil, sesame oil, peanut oil, higher = larger tumour
inactive: endpoint: mean survival time, dose: 8.0 mg/kg/injection, schedule: Q08DX002 (ip), vehicle: saline + alcohol, higher = longer survival 97 % of control | endpoint: mean survival time, dose: 16.0 mg/kg/injection, schedule: Q08DX002 (ip), vehicle: saline + alcohol, higher = longer survival 105 % of control | endpoint: mean survival time, dose: 24.0 mg/kg/injection, schedule: Q08DX002 (ip), vehicle: saline + alcohol, higher = longer survival 123 % of control | endpoint: median survival time, dose: 0.5 mg/kg/injection, schedule: Q01DX001 (ip), vehicle: Klucel (hydroxypropylcellulose) (HPC), higher = longer survival 107 % of control | endpoint: median survival time, dose: 1.0 mg/kg/injection, schedule: Q01DX001 (ip), vehicle: Klucel (hydroxypropylcellulose) (HPC), higher = longer survival 86 % of control | endpoint: median survival time, dose: 1.0 mg/kg/injection, schedule: Q01DX005 (ip), vehicle: saline + alcohol, higher = longer survival 90 % of control and 107 % of control | endpoint: median survival time, dose: 1.0 mg/kg/injection, schedule: Q02DX009 (ip), vehicle: saline + alcohol, higher = longer survival 106 % of control and 124 % of control | endpoint: median survival time, dose: 2.0 mg/kg/injection, schedule: Q01DX005 (ip), vehicle: saline + alcohol, higher = longer survival 113 % of control and 114 % of control | endpoint: median survival time, dose: 2.0 mg/kg/injection, schedule: Q01DX009 (ip), vehicle: Klucel (hydroxypropylcellulose) (HPC), higher = longer survival 90 % of control and 105 % of control and 120 % of control | endpoint: median survival time, dose: 2.0 mg/kg/injection, schedule: Q01DX009 (ip), vehicle: saline with Tween-80, higher = longer survival 91 % of control and 114 % of control | endpoint: median survival time, dose: 2.0 mg/kg/injection, schedule: Q02DX009 (ip), vehicle: saline + alcohol, higher = longer survival 115 % of control | endpoint: median survival time, dose: 4.0 mg/kg/injection, schedule: Q01DX001 (ip), vehicle: Klucel (hydroxypropylcellulose) (HPC), higher = longer survival 86 % of control | endpoint: median survival time, dose: 4.0 mg/kg/injection, schedule: Q01DX005 (ip), vehicle: saline + alcohol, higher = longer survival 93 % of control and 105 % of control | endpoint: median survival time, dose: 4.0 mg/kg/injection, schedule: Q01DX009 (ip), vehicle: Klucel (hydroxypropylcellulose) (HPC), higher = longer survival 92 % of control and 97 % of control | endpoint: median survival time, dose: 4.0 mg/kg/injection, schedule: Q01DX009 (ip), vehicle: saline with Tween-80, higher = longer survival 98 % of control | endpoint: median survival time, dose: 4.0 mg/kg/injection, schedule: Q02DX009 (ip), vehicle: saline + alcohol, higher = longer survival 90 % of control and 115 % of control | endpoint: median survival time, dose: 6.7 mg/kg/injection, schedule: Q01DX005 (ip), vehicle: saline with Tween-80, higher = longer survival 105 % of control and 113 % of control | endpoint: median survival time, dose: 7.0 mg/kg/injection, schedule: Q01DX001 (ip), vehicle: saline with Tween-80, higher = longer survival 104 % of control and 121 % of control | endpoint: median survival time, dose: 7.5 mg/kg/injection, schedule: Q01DX001 (ip), vehicle: Klucel (hydroxypropylcellulose) (HPC), higher = longer survival 86 % of control | endpoint: median survival time, dose: 7.5 mg/kg/injection, schedule: Q01DX001 (ip), vehicle: saline with Tween-80, higher = longer survival 112 % of control | endpoint: median survival time, dose: 8.0 mg/kg/injection, schedule: Q01DX001 (ip), vehicle: Klucel (hydroxypropylcellulose) (HPC), higher = longer survival 96 % of control | endpoint: median survival time, dose: 8.0 mg/kg/injection, schedule: Q01DX001 (ip), vehicle: saline + alcohol, higher = longer survival 100 % of control and 107 % of control | endpoint: median survival time, dose: 8.0 mg/kg/injection, schedule: Q01DX005 (ip), vehicle: saline + alcohol, higher = longer survival 118 % of control and 120 % of control | endpoint: median survival time, dose: 8.0 mg/kg/injection, schedule: Q02DX009 (ip), vehicle: saline + alcohol, higher = longer survival 118 % of control | endpoint: median survival time, dose: 8.0 mg/kg/injection, schedule: Q08DX002 (ip), vehicle: saline + alcohol, higher = longer survival 95 % of control | endpoint: median survival time, dose: 9.0 mg/kg/injection, schedule: Q01DX001 (ip), vehicle: Klucel (hydroxypropylcellulose) (HPC), higher = longer survival 94 % of control | endpoint: median survival time, dose: 10.0 mg/kg/injection, schedule: Q01DX001 (ip), vehicle: Klucel (hydroxypropylcellulose) (HPC), higher = longer survival 85 % of control and 95 % of control | endpoint: median survival time, dose: 10.7 mg/kg/injection, schedule: Q01DX001 (ip), vehicle: saline with Tween-80, higher = longer survival 111 % of control | endpoint: median survival time, dose: 11.0 mg/kg/injection, schedule: Q01DX001 (ip), vehicle: saline with Tween-80, higher = longer survival 94 % of control and 113 % of control | endpoint: median survival time, dose: 13.0 mg/kg/injection, schedule: Q04DX004 (ip), vehicle: saline with Tween-80, higher = longer survival 115 % of control | endpoint: median survival time, dose: 15.0 mg/kg/injection, schedule: Q01DX001 (ip), vehicle: Klucel (hydroxypropylcellulose) (HPC), higher = longer survival 112 % of control | endpoint: median survival time, dose: 16.0 mg/kg/injection, schedule: Q01DX001 (ip), vehicle: gum acacia, higher = longer survival 112 % of control | endpoint: median survival time, dose: 16.0 mg/kg/injection, schedule: Q01DX001 (ip), vehicle: saline + alcohol, higher = longer survival 109 % of control | endpoint: median survival time, dose: 16.0 mg/kg/injection, schedule: Q01DX001 (ip), vehicle: saline with Tween-80, higher = longer survival 95 % of control and 118 % of control | endpoint: median survival time, dose: 16.0 mg/kg/injection, schedule: Q06DX002 (ip), vehicle: gum acacia, higher = longer survival 121 % of control | endpoint: median survival time, dose: 16.0 mg/kg/injection, schedule: Q07DX002 (ip), vehicle: saline with Tween-80, higher = longer survival 83 % of control | endpoint: median survival time, dose: 16.0 mg/kg/injection, schedule: Q08DX002 (ip), vehicle: saline + alcohol, higher = longer survival 105 % of control | endpoint: median survival time, dose: 16.0 mg/kg/injection, schedule: Q11DX002 (ip), vehicle: saline with Tween-80, higher = longer survival 63 % of control | endpoint: median survival time, dose: 16.0 mg/kg/injection, schedule: Q11DX002 (oral), vehicle: saline with Tween-80, higher = longer survival 103 % of control | endpoint: median survival time, dose: 18.0 mg/kg/injection, schedule: Q01DX001 (ip), vehicle: other, higher = longer survival 118 % of control | endpoint: median survival time, dose: 20.0 mg/kg/injection, schedule: Q01DX001 (ip), vehicle: Klucel (hydroxypropylcellulose) (HPC), higher = longer survival 115 % of control | endpoint: median survival time, dose: 22.0 mg/kg/injection, schedule: Q01DX005 (ip), vehicle: saline with Tween-80, higher = longer survival 113 % of control | endpoint: median survival time, dose: 24.0 mg/kg/injection, schedule: Q07DX002 (ip), vehicle: saline with Tween-80, higher = longer survival 77 % of control | endpoint: median survival time, dose: 24.0 mg/kg/injection, schedule: Q11DX002 (ip), vehicle: saline with Tween-80, higher = longer survival 110 % of control | endpoint: median survival time, dose: 24.0 mg/kg/injection, schedule: Q11DX002 (oral), vehicle: saline with Tween-80, higher = longer survival 103 % of control | endpoint: median survival time, dose: 25.0 mg/kg/injection, schedule: Q04DX004 (ip), vehicle: saline with Tween-80, higher = longer survival 111 % of control | endpoint: median survival time, dose: 32.0 mg/kg/injection, schedule: Q01DX001 (ip), vehicle: saline + alcohol, higher = longer survival 86 % of control and 88 % of control | endpoint: median survival time, dose: 36.0 mg/kg/injection, schedule: Q10DX002 (ip), vehicle: gum acacia, higher = longer survival 108 % of control | endpoint: median survival time, dose: 36.0 mg/kg/injection, schedule: Q12DX002 (ip), vehicle: gum acacia, higher = longer survival 93 % of control | endpoint: median survival time, dose: 60.0 mg/kg/injection, schedule: Q01DX001 (ip), vehicle: Klucel (hydroxypropylcellulose) (HPC), higher = longer survival 90 % of control | endpoint: median survival time, dose: 60.0 mg/kg/injection, schedule: Q01DX001 (ip), vehicle: saline with Tween-80, higher = longer survival 112 % of control | endpoint: median survival time, dose: 64.0 mg/kg/injection, schedule: Q01DX001 (ip), vehicle: saline + alcohol, higher = longer survival 57 % of control | endpoint: median survival time, dose: 128.0 mg/kg/injection, schedule: Q01DX001 (ip), vehicle: saline + alcohol, higher = longer survival 49 % of control
83 % of control: endpoint: median tumor weight (est.), dose: 7.0 mg/kg/injection, schedule: Q01DX001 (sc), vehicle: olive oil, sesame oil, peanut oil, higher = larger tumour
92 % of control: endpoint: median tumor weight (est.), dose: 7.5 mg/kg/injection, schedule: Q01DX001 (ip), vehicle: Klucel (hydroxypropylcellulose) (HPC), higher = larger tumour
46 % of control: endpoint: median tumor weight (est.), dose: 16.0 mg/kg/injection, schedule: Q01DX001 (ip), vehicle: gum acacia, higher = larger tumour
16 % of control: endpoint: median tumor weight (est.), dose: 11.0 mg/kg/injection, schedule: Q01DX001 (ip), vehicle: DMSO, higher = larger tumour
51 % of control: endpoint: median tumor weight (est.), dose: 4.0 mg/kg/injection, schedule: Q01DX009 (ip), vehicle: Klucel (hydroxypropylcellulose) (HPC), higher = larger tumour
56 % of control: endpoint: median tumor weight (est.), dose: 11.0 mg/kg/injection, schedule: Q01DX001 (ip), vehicle: saline with Tween-80, higher = larger tumour
71 % of control: endpoint: median tumor weight (est.), dose: 16.0 mg/kg/injection, schedule: Q01DX001 (ip), vehicle: saline with Tween-80, higher = larger tumour
3 % of control: endpoint: median tumor weight (est.), dose: 8.0 mg/kg/injection, schedule: Q01DX009 (ip), vehicle: Klucel (hydroxypropylcellulose) (HPC), higher = larger tumour | endpoint: median tumor weight (est.), dose: 30.0 mg/kg/injection, schedule: Q01DX001 (ip), vehicle: Klucel (hydroxypropylcellulose) (HPC), higher = larger tumour
59 % of control: endpoint: median tumor weight (est.), dose: 7.0 mg/kg/injection, schedule: Q01DX001 (ip), vehicle: DMSO, higher = larger tumour
42 % of control: endpoint: median tumor weight (est.), dose: 15.0 mg/kg/injection, schedule: Q01DX001 (ip), vehicle: Klucel (hydroxypropylcellulose) (HPC), higher = larger tumour
41 % of control and 50 % of control: endpoint: median tumor weight (est.), dose: 12.0 mg/kg/injection, schedule: Q01DX001 (ip), vehicle: gum acacia, higher = larger tumour
53 % of control: endpoint: median tumor weight (est.), dose: 11.0 mg/kg/injection, schedule: Q01DX001 (sc), vehicle: olive oil, sesame oil, peanut oil, higher = larger tumour
82 % of control: endpoint: median tumor weight (est.), dose: 2.0 mg/kg/injection, schedule: Q01DX009 (ip), vehicle: Klucel (hydroxypropylcellulose) (HPC), higher = larger tumour
90 % of control: endpoint: median tumor weight (est.), dose: 7.0 mg/kg/injection, schedule: Q01DX001 (ip), vehicle: saline with Tween-80, higher = larger tumour
